From US20050197350A1, “Novel quinoline, tetrahydroquinazoline, and pyrimidine derivatives and methods of treatment related to the use thereof” (TAISHO PHARMACEUTICAL CO., LTD., priority 2003, published 2005)
Counter-ions that a name gives are not always drawn.

The compounds below were run against MCH receptor (Homo sapiens, UniProt Q99705) (assay: High throughput functional screening FLIPR/FDSS6000 (intracellular Ca2+ evoked by MCH)). Settings: FLIPR/FDSS, antagonist activity vs 50 nM MCH; class by percent of control at 10^−7 M or IC50; table after the classification; read-out: class.
Format: cell-based
In short: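 For antagonist testing, compound-treated cells (30 min, 37 °C) were stimulated with 50 nM MCH and intracellular Ca2+ followed by Fluo4 fluorescence on FLIPR/FDSS6000. Receptor was a constitutively active, non-endogenous MCH receptor; dye loading 4 μM Fluo4-AM, 1 h, 37 °C.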

| SMILES | IC50 [nM] |
| --- | --- |
| CN(C)c1nc(N[C@H]2CC[C@@H](NC(=O)c3cccnc3Oc3ccccc3)CC2)nc2c1CCCC2 [Example 3107, N-[cis-4-(4-Dimethylamino-5,6,7,8-tetrahydro-quinazolin-2-ylamino)-cyclohexyl]-2-phenoxy-nicotinamide hydrochloride] | < 50 |
| CN(C)c1nc(N[C@H]2CC[C@@H](NC(=O)c3ccc(F)c(Cl)c3)CC2)nc2c1CCCC2 [Example 3108, 3-Chloro-N-[cis-4-(4-dimethylamino-5,6,7,8-tetrahydro-quinazolin-2-ylamino)-cyclohexyl]-4-fluoro-benzamide hydrochloride] | < 50 |
| Cc1cc(C(=O)N[C@H]2CC[C@@H](Nc3nc4c(c(N(C)C)n3)CCCC4)CC2)ccc1F [Example 3109, N-[cis-4-(4-Dimethylamino-5,6,7,8-tetrahydro-quinazolin-2-ylamino)-cyclohexyl]-4-fluoro-3-methyl-benzamide hydrochloride] | < 50 |
| COc1cc(OC)cc(C(=O)N[C@H]2CC[C@@H](Nc3nc4c(c(N(C)C)n3)CCCC4)CC2)c1 [Example 3110, N-[cis-4-(4-Dimethylamino-5,6,7,8-tetrahydro-quinazolin-2-ylamino)-cyclohexyl]-3,5-dimethoxy-benzamide hydrochloride] | < 50 |
| CN(C)c1nc(N[C@H]2CC[C@@H](NC(=O)c3ccc4nonc4c3)CC2)nc2c1CCCC2 [Example 3111, Benzo[2,1,3]oxadiazole-5-carboxylic acid-[cis-4-(4-dimethylamino-5,6,7,8-tetrahydro-quinazolin-2-ylamino)-cyclohexyl]-amide hydrochloride] | < 50 |
| CN(C)c1nc(N[C@H]2CC[C@@H](NC(=O)c3cccc([N+](=O)[O-])c3)CC2)nc2c1CCCC2 [Example 3112, N-[cis-4-(4-Dimethylamino-5,6,7,8-tetrahydro-quinazolin-2-ylamino)-cyclohexyl]-3-nitro-benzamide hydrochloride] | < 50 |
| CN(C)c1nc(N[C@H]2CC[C@@H](CNC(=O)c3cccnc3Oc3ccccc3)CC2)nc2c1CCCC2 [Example 3113, N-[cis-4-(4-Dimethylamino-5,6,7,8-tetrahydro-quinazolin-2-ylamino)-cyclohexylmethyl]-2-phenoxy-nicotinamide hydrochloride] | > 200 |
| CN(C)c1cc(N[C@H]2CC[C@@H](NC(=O)c3cccnc3Oc3ccccc3)CC2)nc2ccccc12 [Example 3114, N-[cis-4-(4-Dimethylamino-quinolin-2-ylamino)-cyclohexyl]-2-phenoxy-nicotinamide hydrochloride] | < 50 |
| O=C(N[C@H]1CC[C@@H](Nc2cc(Cl)c3ccccc3n2)CC1)c1cccnc1Oc1ccccc1 [Example 3115, N-[cis-4-(4-Chloro-quinolin-2-ylamino)-cyclohexyl]-2-phenoxy-nicotinamide hydrochloride] | < 50 |
| COc1cc(N[C@H]2CC[C@@H](NC(=O)c3ccc(F)c(F)c3)CC2)nc2ccccc12 [Example 3116, 3,4-Difluoro-N-[cis-4-(4-methoxy-quinolin-2-ylamino)-cyclohexyl]-benzamide hydrochloride] | > 200 |
| O=C(N[C@H]1CC[C@@H](Nc2cc(Cl)c3ccccc3n2)CC1)c1ccc(F)c(F)c1 [Example 3117, N-[cis-4-(4-Chloro-quinolin-2-ylamino)-cyclohexyl]-3,4-difluoro-benzamide hydrochloride] | < 50 |
| CN(C)c1cc(N[C@H]2CC[C@@H](CNC(=O)c3cccnc3Oc3ccccc3)CC2)nc2ccccc12 [Example 3118, N-[cis-4-(4-Dimethylamino-quinolin-2-ylamino)-cyclohexylmethyl]-2-phenoxy-nicotinamide hydrochloride] | > 200 |
| Cc1cnc(N[C@H]2CC[C@@H](NC(=O)c3ccc(F)c(F)c3)CC2)nc1N(C)C [Example 3119, N-[cis-4-(4-Dimethylamino-5-methyl-pyrimidin-2-ylamino)-cyclohexyl]-3,4-difluoro-benzamide hydrochloride] | < 50 |
| Cc1cnc(N[C@H]2CC[C@@H](NC(=O)c3cccnc3Oc3ccccc3)CC2)nc1N(C)C [Example 3120, N-[cis-4-(4-Dimethylamino-5-methyl-pyrimidin-2-ylamino)-cyclohexyl]-2-phenoxy-nicotinamide hydrochloride] | < 50 |
| Cc1cccc(C(=O)N[C@H]2CC[C@@H](Nc3ncc(C)c(N(C)C)n3)CC2)c1 [Example 3121, N-[cis-4-(4-Dimethylamino-5-methyl-pyrimidin-2-ylamino)-cyclohexyl]-3-methyl-benzamide hydrochloride] | < 50 |
| COc1cccc(C(=O)N[C@H]2CC[C@@H](Nc3ncc(C)c(N(C)C)n3)CC2)c1 [Example 3122, N-[cis-4-(4-Dimethylamino-5-methyl-pyrimidin-2-ylamino)-cyclohexyl]-3-methoxy-benzamide hydrochloride] | < 50 |
| Cc1cnc(N[C@H]2CC[C@@H](NC(=O)c3cccnc3Oc3ccc(F)cc3)CC2)nc1N(C)C [Example 3123, N-[cis-4-(4-Dimethylamino-5-methyl-pyrimidin-2-ylamino)-cyclohexyl]-2-(4-fluoro-phenoxy)-nicotinamide hydrochloride] | < 50 |

| SMILES | IC50 [nM] |
| --- | --- |
| Cc1cnc(N[C@H]2CC[C@@H](NC(=O)c3cccnc3Oc3ccccc3Br)CC2)nc1N(C)C [Example 3124, 2-(2-Bromo-phenoxy)-N-[cis-4-(4-dimethylamino-5-methyl-pyrimidin-2-ylamino)-cyclohexyl]-nicotinamide hydrochloride] | < 50 |
| Cc1cnc(N[C@H]2CC[C@@H](CNC(=O)Nc3cccc(Cl)c3Cl)CC2)nc1N(C)C [Example 3125, 1-(2,3-Dichloro-phenyl)-3-[cis-4-(4-dimethylamino-5-methyl-pyrimidin-2-ylamino)-cyclohexylmethyl]-urea hydrochloride] | < 50 |
| Cc1cc(N(C)C)nc(N[C@H]2CC[C@@H](NC(=O)c3cccnc3Oc3ccccc3)CC2)n1 [Example 3126, N-[cis-4-(4-Dimethylamino-6-methyl-pyrimidin-2-ylamino)-cyclohexyl]-2-phenoxy-nicotinamide hydrochloride] | < 50 |
| Cc1cc(N(C)C)nc(N[C@H]2CC[C@@H](NC(=O)c3ccc(F)c(F)c3)CC2)n1 [Example 3127, N-[cis-4-(4-dimethylamino-C-methyl-pyrimidin-2-ylamino)-cyclohexyl]-3,4-difluoro-benzamide hydrochloride] | < 50 |
| Cc1cc(N(C)C)nc(N[C@H]2CC[C@@H](NC(=O)c3cccc(Cl)c3)CC2)n1 [Example 3128, 3-Chloro-N-[cis-4-(4-dimethylamino-6-methyl-pyrimidin-2-ylamino)-cyclohexyl]-benzamide hydrochloride] | < 50 |
| CN(C)c1ccnc(N[C@H]2CC[C@@H](NC(=O)c3cccnc3Oc3ccccc3)CC2)n1 [Example 3129, N-[cis-4-(4-Dimethylamino-pyrimidin-2-ylamino)-cyclohexyl]-2-phenoxy-nicotinamide hydrochloride] | 50 to 200 |
| O=C(N[C@H]1CC[C@@H](Nc2nccc(C(F)(F)F)n2)CC1)c1ccc(F)c(F)c1 [Example 3130, 3,4-Difluoro-N-[cis-4-(4-trifluoromethyl-pyrimidin-2-yl)amino-cyclohexyl]-benzamide hydrochloride] | > 200 |
| COc1ccnc(N[C@H]2CC[C@@H](NC(=O)c3ccc(F)c(F)c3)CC2)n1 [Example 3131, 3,4-Difluoro-N-[cis-4-(4-methoxy-pyrimidin-2-ylamino)-cyclohexyl]-benzamide hydrochloride] | > 200 |
| COc1cc(OC)nc(N[C@H]2CC[C@@H](NC(=O)c3ccc(F)c(F)c3)CC2)n1 [Example 3132, N-[cis-4-(4,6-Dimethoxy-pyrimidin-2-ylamino)-cyclohexyl]-3,4-difluoro-benzamide hydrochloride] | > 200 |
| O=C(N[C@H]1CC[C@@H](Nc2nccc(C(F)(F)F)n2)CC1)c1cccnc1Oc1ccccc1 [Example 3133, 2-Phenoxy-N-[cis-4-(4-trifluoromethyl-pyrimidin-2-yl)-amino-cyclohexyl]-nicotinamide hydrochloride] | > 200 |
| COc1ccnc(N[C@H]2CC[C@@H](NC(=O)c3cccnc3Oc3ccccc3)CC2)n1 [Example 3134, N-[cis-4-(4-Methoxy-pyrimidin-2-ylamino)-cyclohexyl]-2-phenoxy-nicotinamide hydrochloride] | > 200 |
| COc1cc(OC)nc(N[C@H]2CC[C@@H](NC(=O)c3cccnc3Oc3ccccc3)CC2)n1 [Example 3135, N-[cis-4-(4,6-Dimethoxy-pyrimidin-2-ylamino)-cyclohexyl]-2-phenoxy-nicotinamide hydrochloride] | > 200 |
| CN(C)c1nc(N[C@H]2CC[C@@H](NC(=O)c3cccnc3Oc3ccccc3)CC2)ncc1-c1ccccc1 [Example 3136, N-[cis-4-(4-Dimethylamino-5-phenyl-pyrimidin-2-ylamino)-cyclohexyl]-2-phenoxy-nicotinamide hydrochloride] | > 200 |
| CN(C)N(c1ncc(Cl)cn1)[C@H]1CC[C@@H](NC(=O)c2cccnc2Oc2ccccc2)CC1 [Example 3137, N-[cis-4-(5-Chloro-dimethylamino-pyrimidin-2-ylamino)-cyclohexyl]-2-phenoxy-nicotinamide hydrochloride] | 50 to 200 |
| CN(C)c1nc(N[C@H]2CC[C@@H](NC(=O)c3ccc(F)c(F)c3)CC2)ncc1-c1ccccc1 [Example 3138, N-[cis-4-(4-Dimethylamino-5-phenyl-pyrimidin-2-ylamino)-cyclohexyl]-3,4-difluoro-benzamide hydrochloride] | 50 to 200 |
| CN(C)c1nc(N[C@H]2CC[C@@H](NC(=O)c3ccc(F)c(F)c3)CC2)ncc1Cl [Example 3139, N-[cis-4-(5-Chloro-4-dimethylamino-pyrimidin-2-ylamino)-cyclohexyl]-3,4-difluoro-benzamide hydrochloride] | 50 to 200 |
